Values belong to the molecule of their own block, whether it stands above or below them.
Tests used:
[1] = Half-life in Lewis rat at 2 mg/kg, po measured over 72 hrs by LC-MS/MS analysis; format: ADME, organism-based; conditions: in vivo
[2] = Drug metabolism in Lewis rat blood assessed as concentration of parent compound at 2 mg/kg, po measured at 24 hrs by LC-MS/MS analysis; format: ADME, organism-based; conditions: read-out: Ct
[3] = Ratio of drug metabolism in Lewis rat blood assessed as phosphate ester metabolite to parent drug at 2 mg/kg, po measured at 24 hrs by LC-MS/MS analysis; format: ADME, organism-based; conditions: in vivo
[4] = Pulmonary toxicity in Lewis rat assessed as elevation of BAL protein level at 25 mg/kg by advia1800 chemistry analyzer; format: organism-based; conditions: in vivo
Rattus norvegicus [5] = test: Reduction in circulating lymphocytes in Lewis rat blood at 2 mg/kg, po measured at 24 hrs by hematology analyzer based analysis; format: functional; parameters: scale not given: the % may be the effect or the level left
Rattus norvegicus [6] = test: Reduction in circulating lymphocytes in Lewis rat blood at 2 mg/kg, po measured at 4 hrs by hematology analyzer based analysis; format: functional; parameters: scale not given: the % may be the effect or the level left
Rattus norvegicus [7] = test: Reduction in circulating lymphocytes in Lewis rat blood assessed as effective dose after oral dosing measured at 24 hrs by hematology analyzer based analysis; format: functional
[8] = Drug metabolism in Lewis rat blood assessed as concentration of parent compound at 2 mg/kg, po measured at 4 hrs by LC-MS/MS analysis; format: ADME, organism-based; conditions: read-out: Ct
Rattus norvegicus [9] = test: Drug metabolism in Lewis rat blood assessed as concentration of phosphate ester metabolite formation at 2 mg/kg, po measured at 4 hrs by LC-MS/MS analysis; conditions: in vivo
[10] = Ratio of drug metabolism in Balb/c mouse blood assessed as phosphate ester metabolite to parent drug at 15 mg/kg, po measured at 24 hrs by LC-MS/MS analysis; format: ADME, organism-based; conditions: in vivo
[11] = Drug metabolism in Balb/c mouse blood assessed as concentration of phosphate ester metabolite formation at 1 mg/kg, po measured at 4 hrs by LC-MS/MS analysis; format: ADME, organism-based; conditions: in vivo, BLD = below limit of detection
[12] = Ratio of drug metabolism in Balb/c mouse blood assessed as phosphate ester metabolite to parent drug at 1 mg/kg, po measured at 24 hrs by LC-MS/MS analysis; format: ADME, organism-based; conditions: in vivo
[13] = Drug metabolism in Balb/c mouse blood assessed as concentration of parent compound at 1 mg/kg, po measured at 4 hrs by LC-MS/MS analysis; format: ADME, organism-based; conditions: Balb/c, blood, read-out: Ct
[14] = Drug metabolism in Balb/c mouse blood assessed as concentration of parent compound at 1 mg/kg, po measured at 24 hrs by LC-MS/MS analysis; format: ADME, organism-based; conditions: Balb/c, blood, read-out: Ct
[15] = Drug metabolism in Balb/c mouse blood assessed as concentration of phosphate ester metabolite formation at 15 mg/kg, po measured at 24 hrs by LC-MS/MS analysis; format: ADME, organism-based; conditions: in vivo
[16] = Drug metabolism in Balb/c mouse blood assessed as concentration of phosphate ester metabolite formation at 15 mg/kg, po measured at 4 hrs by LC-MS/MS analysis; format: ADME, organism-based; conditions: in vivo
Mus musculus [17] = test: Reduction in circulating lymphocytes in Balb/c mouse blood at 1 mg/kg, po measured at 24 hrs by hematology analyzer based analysis; format: functional; parameters: scale not given: the % may be the effect or the level left
[18] = Drug metabolism in Balb/c mouse blood assessed as concentration of parent compound at 15 mg/kg, po measured at 4 hrs by LC-MS/MS analysis; format: ADME, organism-based; conditions: read-out: Ct
Mus musculus [19] = test: Reduction in circulating lymphocytes in Balb/c mouse blood at 15 mg/kg, po measured at 24 hrs by hematology analyzer based analysis; format: functional; parameters: scale not given: the % may be the effect or the level left
[20] = Drug metabolism in Balb/c mouse blood assessed as concentration of phosphate ester metabolite formation at 1 mg/kg, po measured at 24 hrs by LC-MS/MS analysis; format: ADME, organism-based; conditions: in vivo
Mus musculus [21] = test: Reduction in circulating lymphocytes in Balb/c mouse blood at 15 mg/kg, po measured at 4 hrs by hematology analyzer based analysis; format: functional; parameters: scale not given: the % may be the effect or the level left
Mus musculus [22] = test: Reduction in circulating lymphocytes in Balb/c mouse blood at 1 mg/kg, po measured at 4 hrs by hematology analyzer based analysis; format: functional; parameters: scale not given: the % may be the effect or the level left
[23] = Drug metabolism in Balb/c mouse blood assessed as concentration of parent compound at 15 mg/kg, po measured at 24 hrs by LC-MS/MS analysis; format: ADME, organism-based; conditions: read-out: Ct

- half-life [1]: 11 h
- concentration at 24 h [2]: 40 nM
- Ratio [3]: 0.4
- concentration at 4 h [8]: 190 nM
- Drug metabolism (Rattus norvegicus [9]): 10 nM
SMILES: COc1ccc(CC[C@@H]2CCc3cc([C@H]4CC[C@](N)(CO)C4)ccc3C2)cc1
- Activity [4]: 26 mg/dL
- Activity (Rattus norvegicus [5]): 81%
- Activity (Rattus norvegicus [6]): 21%
- ED50 (Rattus norvegicus [7]): 0.5 mg/kg

- Ratio [10]: 2.3
- Drug metabolism [11]: Bld
- half-life [1]: > 75 h
- concentration at 24 h [2]: 140 nM
- Ratio [12]: 2.8
- Ratio [3]: 6
- concentration at 4 h [13]: 13 nM
- concentration at 24 h [14]: 12 nM
- Drug metabolism [15]: 360 nM
- Drug metabolism [16]: 110 nM
- concentration at 4 h [18]: 150 nM
- Drug metabolism [20]: 34 nM
- concentration at 4 h [8]: 130 nM
- concentration at 24 h [23]: 160 nM
- Drug metabolism (Rattus norvegicus [9]): 150 nM
SMILES: N[C@]1(CO)CC[C@H](c2ccc3c(c2)CC[C@@H](CCc2ccccc2)C3)C1
- Activity (Rattus norvegicus [5]): 82%
- Activity (Rattus norvegicus [6]): 43%
- Activity (Mus musculus [17]): 52%
- Activity (Mus musculus [19]): 88%
- Activity (Mus musculus [21]): 81%
- Activity (Mus musculus [22]): 10%

Source: ChEMBL document CHEMBL4765241, “Identification and Preclinical Pharmacology of ((1 R,3 S)-1-Amino-3-(( S)-6-(2-methoxyphenethyl)-5,6,7,8-tetrahydronaphthalen-2-yl)cyclopentyl)methanol (BMS-986166): A Differentiated Sphingosine-1-phosphate Receptor 1 (S1P) Modulator Advanced into Clinical Trials” (J Med Chem, 2019)
